Values joined by “and” are separate entries in the source; they are usually repeats but may differ in a detail not shown here. Equal values may be shown once. Where a name gives a salt, the structure may show the parent alone. Read-outs that look alike come from different tables or passages of the source.
Columns and labels:
[1] = tested on: rat paw injected with Zymosan; assay: Zymosan-induced paw oedema in rats; format: in vivo; settings: for Anti-inflammatory activity (oedema) ED30 / Mean (Oedema + Analgesia) ED30: os, 0-6 hours; for Anti-inflammatory activity (oedema) ED30: dose reducing volume increase by 30%; for Mean (Oedema + Analgesia) ED30: mean of oedema and analgesia ED30; for anti-inflammatory and anti-hyperalgesic action (in words): Zymosan, administered orally, L-NAME up to maximum dose 50 mg/kg
Procedure: (§1) This is a phlogogenic agent, consisting of a protein-glycoside complex, extracted from the cell walls of raw yeast, which is capable of inducing rapid degranulation of neutrophils, an increase in the production of TNF-α, interleukin-1 (IL-1), IL-6 and stimulation of NO generation by monocytes and macrophages (ZymosaN:Merck Index XIII ed. No. 10250, p. 1818).
(§2) The experiments consisted of sub-plantar intradermal injection into the animal of 4 mg of Zymosan suspended in 100 μl of sterile physiological solution, while the test compounds were administered orally 30 minutes before injection of the phlogogenic agent.
(§3) Measurement of the inflammation of the injected paw and of the consequent hyperalgesic effects was performed 2, 4 and 6 hours after the administration of Zymosan. The oedema was evaluated as the increase in volume of the injected paw within the period 0-6 hours, relative to the initial value of the volume of the paw, i.e. before the injection of Zymosan (basal value).
The measurements of the variation of the volume of the paw were recorded using a hydroplethysmometer (Mod. 7150, Basile, Italy), which consists of two plastic cuvettes containing a surfactant liquid, the larger one being used for immersion of the paw, connected to the smaller one which contains a transducer capable of recording small displacements of volume of the liquid used for the measurement. The paw is immersed in the cuvettes up to the tibiotarsal joint. The volume of liquid displaced by the paw indicates the magnitude of the inflammation.
For each test compound, at least three doses were used (generally 10, 20 and 40 mg/kg) with at least five animals per group×dose, so as to be able to calculate an ED30, i.e. the dose in mg/kg capable of reducing by 30% the Zymosan-induced volume increase, relative to the group of control animals, i.e. animals injected only with the phlogogenic agent and treated orally with distilled water.

[2] = tested on: rat paw injected with Zymosan; assay: Zymosan-induced mechanical hyperalgesia in rats (Randall-Selitto); format: in vivo; settings: os, 0-6 hours, dose increasing pain threshold by 30%
Procedure: as §1, §2, §3
The hyperalgesia induced by the intradermal administration of Zymosan was evaluated on these animals and at the same times described previously for the evaluation of the oedema, using the Randall-Selitto method [Arch. Int. Pharmacodyn. 111, 409 (1957)].
When the animal makes a noise following the pain stimulus, the operator blocks the punch and records the force, expressed in grams, which was applied to the paw (the cut-off value is 500 grams). The difference in the meal chanical pain threshold between the basal value (generally about 230-250 grams) and that recorded at the indicated times after injection of the phlogogenic agent, generally 130-140 g for the control animals 6 hours after injection of the phlogogenic agent, is defined as mechanical hyperalgesia. In this case also, an ED30 was calculated, i.e. the dose in mg/kg capable of increasing the pain threshold by 30% (meal chanical hyperalgesia) in the animals treated with the test compounds relative to the group of control animals.

[3] = tested on: formation of NO measured as NO2^− (nitrite); assay: Inhibition of NO (nitrite) formation in rabbit articular chondrocytes stimulated with IL-1β; format: cell-based
Procedure: (§4) a) The inhibitory activity on the formation of NO measured as NO2^− (nitrite) and PGE2 was studied in vitro on culture media of rabbit articular chondrocytes stimulated with the cytokine IL-1β (1 ng/ml) for 48 hours. For the preparation of the chondrocytes, the method described by Berenbaum et al. [FEBS Letters 340, 51-55 (1994)] was followed. Briefly, fragments of cartilage removed aseptically from the articular heads of rabbit shoulder, hip and knee were finely ground and digested at 37° C. in hyaluronidase, trypsin and collagenase solutions, giving, after filtration through sterile gauze and centrifugation at 600×g and suitable dilution with 10% DMEM-FCS 10%, a concentration per well of about 1×10^5 cells. The cells were maintained under these conditions until confluent (about 15 days), the medium being replaced every 3 days. At this point, the test products dissolved in the medium were added to each sample and, after 20 minutes, 350 μl of IL-1β were added, to give a final concentration of 1 ng/ml. The stimulation lasted 48 hours at 37° C. (incubation in air/7% CO2). A nitrite assay was subsequently performed on the cell supernatant, as described by Green et al. [Anal. Biochem. 126, 131-138 (1982)], and of PGE2 by RIA assay. The results obtained are shown in Table 3, in which is given, for a number of the compounds that are the subject of the invention and that are already illustrated in Table 1, the IC50, i.e. the concentration (micromolar) of antagonist capable of inhibiting the formation of nitrites and PGE2 by 50% relative to the control group, i.e. relative to the cells stimulated with IL-1β but without addition of antagonists.

PGE2 = assay: Inhibition of PGE2 formation in rabbit articular chondrocytes stimulated with IL-1β (RIA); format: cell-based; settings: for IC50: Oryctolagus cuniculus, Chondrocyte
Procedure: as §4

[4] = tested on: rabbit articular chondrocytes; assay: Cellular toxicity on rabbit articular chondrocytes; format: cell-based; settings: noted beside IN in Table 3
Procedure: as §4

IL-6 = assay: Inhibition of IL-6 expression (mRNA) in SW 1353 cells stimulated with IL-1β, Real Time PCR; format: cell-based; settings: Homo sapiens, SW1353; SW 1353 cells stimulated for 6 hours with IL-1β
Text: In practice, the RNA extracted from the cells was back-transcribed to c-DNA by means of a thermocycler (BioRad—“iCycler”) and subsequently amplified via the Real Time PCR technique using a probe and a primer specific for IL-6, from the company Applied Biosystem, and the thermocycler 7000 Sequence Detection System (Applied Biosystem).
The capacity […] may be considered as large, since the increase in the expression of this cytokine is associated with the physiopathology of various human diseases, for instance Crohn's disease, as described previously.

[5] = rabbit articular chondrocytes stimulated with IL-1β
[6] = rabbit articular chondrocytes, IL-1β 1 ng/ml, 48 hours, RIA, read-out: Inhibition % IC50 PGE2
[7] = Oryctolagus cuniculus, Chondrocyte, rabbit articular chondrocytes stimulated with IL-1β, read-out: IC50, production of NO
[8] = Oryctolagus cuniculus, Chondrocyte, rabbit articular chondrocytes, IL-1β 1 ng/ml, 48 hours, nitrite in supernatant, read-out: Inhibition % IC50 NO

Compound | IC50 (PGE2; [6]) [µM] | melting point | IC50 [3, 7] [µM] | IC50 [3, 8] [µM] | IC50 (IL-6) [µM] | IC50 (PGE2; rabbit articular chondrocytes stimulated with IL-1β, read-out: IC50, formation of PGE2) [µM] | Anti-inflammatory activity (oedema) ED30 [1] | Mean (Oedema + Analgesia) ED30 [1] | Analgesic activity (mechanical anti-hyperalgesia) ED30 [2] | inhibiting the production of NO (in words) [3, 5] | anti-inflammatory and anti-hyperalgesic action (in words) [1] | Tox = cellular toxicity (concentration) [4] [µM] | anti-inflammatory and anti-hyperalgesic action (in words) ([1]; 50 mg/kg) | activity on NO production, fold less powerful than the best compounds of the invention [3, 5] | IC50 ([3]; rabbit articular chondrocytes stimulated with IL-1β, read-out: IC50, production of NO) [µM] | Inhibition % IC50 PGE2 (PGE2; rabbit articular chondrocytes, IL-1β 1 ng/ml, 48 hours, RIA)
CC(=N)Nc1ccc2nc(-c3ccccc3)sc2c1 [Compound 1, N-(2-phenylbenzothiazol-6-yl)acetamidine] | 2.4 | 161 to 162.1 °C | 3 to 8 | 6.5 | – | – | 12.6 mg/kg | 9.7 mg/kg | 6.7 mg/kg | – | powerful anti-inflammatory and anti-hyperalgesic action | – | – | – | – | –
CC(=N)Nc1ccc2nc(-c3ccccc3)ccc2c1 [Compound 8, N-(2-phenylquinol-6-yl)acetamidine] | 2.3 | 143 to 144.4 °C | – | 47.9 | 1.5 to 6 | – | 19.8 mg/kg | 15.8 mg/kg | 11.8 mg/kg | – | powerful anti-inflammatory and anti-hyperalgesic action | – | – | – | – | –
CC(=N)Nc1ccc2sc(-c3ccccc3)nc2c1 [Compound 9, N-(2-phenylbenzothiazol-5-yl)acetamidine] | 4.2 | 177 to 178 °C | – | 18 | 1.5 to 6 | – | 33.9 mg/kg | 32.6 mg/kg | 31.3 mg/kg | – | powerful anti-inflammatory and anti-hyperalgesic action | – | – | – | – | –
CC(=N)Nc1ccc2nc(-c3ccccc3)ncc2c1 [Compound 27, N-(2-phenylquinazolin-6-yl)acetamidine dihydrochloride] | 9 | – | – | 67.5 | 1.5 to 6 | – | 24.6 mg/kg | 18.8 mg/kg | 13.0 mg/kg | – | powerful anti-inflammatory and anti-hyperalgesic action | – | – | – | – | –
CC(=N)Nc1ccc2oc(-c3ccccc3)nc2c1 [Compound 29, N-(2-phenylbenzoxazol-5-yl)acetamidine] | 3.2 | 171.2 to 173.4 °C | – | 28.6 | 1.5 to 6 | – | – | – | – | – | – | – | – | – | – | –
COC(=O)[C@@H](N)CCCNC(=N)N[N+](=O)[O-] [L-NAME, N^G-nitro-L-arginine methyl ester, reference compound] | – | – | – | – | – | – | IN (the compound L-NAME was entirely inactive up to the maximum dose administered (50 mg/kg)) | IN (the compound L-NAME was entirely inactive up to the maximum dose administered (50 mg/kg)) | IN (the compound L-NAME was entirely inactive up to the maximum dose administered (50 mg/kg)) | – | – | – | inactive | about 10 fold | 71 | IN (IN = <25% inhibitory activity at 30 × 10^−6M)

The next lines start with results.

IC50 (PGE2; [6]) [µM] | melting point | IC50 [3, 7] [µM] | IC50 [3, 8] [µM] | IC50 (IL-6) [µM] | IC50 (PGE2; rabbit articular chondrocytes stimulated with IL-1β, read-out: IC50, formation of PGE2) [µM] | Compound | Anti-inflammatory activity (oedema) ED30 [1] | Mean (Oedema + Analgesia) ED30 [1] | Analgesic activity (mechanical anti-hyperalgesia) ED30 [2] | inhibiting the production of NO (in words) [3, 5] | anti-inflammatory and anti-hyperalgesic action (in words) [1] | Tox = cellular toxicity (concentration) [4] [µM] | anti-inflammatory and anti-hyperalgesic action (in words) ([1]; 50 mg/kg) | activity on NO production, fold less powerful than the best compounds of the invention [3, 5] | IC50 ([3]; rabbit articular chondrocytes stimulated with IL-1β, read-out: IC50, production of NO) [µM] | Inhibition % IC50 PGE2 (PGE2; rabbit articular chondrocytes, IL-1β 1 ng/ml, 48 hours, RIA)
0.02 | – | – | – | – | – | Cc1ccc(-c2cc(C(F)(F)F)nn2-c2ccc(S(N)(=O)=O)cc2)cc1 [Celecoxib, reference compound] | 79.4 mg/kg | 74.3 mg/kg | 69.2 mg/kg | entirely inactive | – | – | – | – | – | –
1.9 | 212.2 to 213.5 °C | – | – | – | – | CC(=N)Nc1ccc2nc(-c3ccc(Cl)cc3)sc2c1 [Compound 3, N-[2-(4-chlorophenyl)benzothiazol-6-yl]acetamidine] | – | – | – | – | – | 30 | – | – | – | –
1.2 | 217.7 to 220 °C and 218 to 220 °C | 3 to 8 | 3.4 | 1.5 to 6 | – | CC(=N)Nc1ccc2[nH]c(-c3ccccc3)cc2c1 [Compound 5, N-(2-phenyl-1H-indol-5-yl)acetamidine] | 39.4 mg/kg | 29.4 mg/kg | 19.3 mg/kg | – | powerful anti-inflammatory and anti-hyperalgesic action | – | – | – | – | –
1.2 | 188.4 to 189.8 °C | 3 to 8 | 6.2 | 1.5 to 6 | – | CC(=N)Nc1ccc2sc(-c3ccccc3C)nc2c1 [Compound 18, N-[2-(2-methylphenyl)benzothiazol-5-yl]acetamidine] | – | – | – | – | – | – | – | – | – | –
0.5 | 204.8 to 205.9 °C | 3 to 8 | 7.8 | 1.5 to 6 | 0.3 to 0.8 | CC(=N)Nc1ccc2oc(-c3ccccc3)cc2c1 [Compound 28, N-(2-phenylbenzofuran-5-yl)acetamidine] | 20.8 mg/kg | 22.6 mg/kg | 24.4 mg/kg | – | powerful anti-inflammatory and anti-hyperalgesic action | – | – | – | – | –
